From patent US20240041042A1, “1-(PYRIDYL)-5-AZINYLPYRAZOLE DERIVATIVES, AND THEIR USE FOR CONTROL OF UNDESIRED PLANT GROWTH” (Bayer Aktiengesellschaft, priority 2020, published 2024)
Where two headings read alike, the source gives them in different places. Blank lines part the entries; values can stand above or below the compound they belong to.

Assays:
Type in all cases: in vivo
[1] = system: Setaria viridis (SETVI); experiment: Pre-emergence herbicidal action against SETVI
Outline: (§1)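 Herbicide applied to soil before seedling emergence, at 600 l/ha spray volume with 0.5% additive and rates up to 320 g/ha. Evaluation: visual percentage effect, about 3 weeks later, greenhouse-grown pots compared with untreated ones.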

[2] = system: Lolium rigidum (LOLRI); experiment: Post-emergence herbicidal action against LOLRI; settings: dosage 320 g/ha
Outline: (§2)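 Rates were 320 g/ha or below, applied as aqueous WP/EC spray with 0.5% additive (600 l/ha) onto one-leaf-stage plants. About 3 weeks later in the greenhouse, damage was scored visually against untreated plants on a 0–100% scale, where 100% means plants died.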

[3] = system: Zea mays (ZEAMX); settings: for Post-emergence action against ZEAMX in %: crop plant compatibility, 80 g/ha, effect vs untreated controls; for Post-emergence action against ZEAMX in % (crop plant compatibility): 20 g/ha, effect in comparison to untreated controls
Outline: (§3)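 Percent effect on the crop was judged by eye against untreated controls, where 0% means like control and 100% means dead plants. Plants had been sprayed post-emergence at the one-leaf stage and then kept under optimum greenhouse conditions for about 3 weeks.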

[4] = system: Oryza sativa (ORYSA); settings: crop plant compatibility
Outline: as §3

[5] = system: Triticum aestivum (TRZAS); settings: crop plant compatibility, effect vs untreated controls
Outline: as §3

[6] = system: Verconica persica (VERPE); experiment: Post-emergence herbicidal action against VERPE; settings: 320 g/ha, VERPE
Outline: as §2

[7] = system: Echinochloa crus-galli (ECHCG); experiment: Post-emergence herbicidal action against ECHCG; settings: dosage 320 g/ha
Outline: as §2

[8] = system: Matricaria inodora (MATIN); experiment: Pre-emergence herbicidal action against MATIN; settings: dosage 320 g/ha
Outline: as §1

[9] = system: Abutilon theophrasti (ABUTH); experiment: Post-emergence herbicidal action against ABUTH; settings: 320 g/ha, visual rating about 3 weeks after treatment vs untreated controls (100% = plants have died, 0% = like control plants)
Outline: as §2

[10] = system: Amaranthus retroflexus (AMARE); experiment: Pre-emergence herbicidal action against AMARE; settings: 320 g/ha, visual scoring after about 3 weeks vs untreated controls
Outline: as §1

[11] = system: Glycine max (GLXMA); settings: crop plant compatibility
Outline: (§4)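 Scoring: visual, % of untreated control, about 3 weeks after a pre-emergence application to the soil surface. Application used WP or EC formulations diluted in water with 0.5% additive at 600 l/ha; dosage levels are marked by suffixes a, b and c.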

[12] = system: Brassica napus (BRSNW); settings: crop plant compatibility, in comparison to untreated controls
Outline: as §4

[13] = system: Zea mays (ZEAMX); settings: crop plant compatibility; for Pre-emergence action against ZEAMX in %: 80 g/ha, in comparison to untreated controls
Outline: as §4

[14] = system: Oryza sativa (ORYSA); settings: crop plant compatibility; for Pre-emergence action against ORYSA in %: 80 g/ha, in comparison to untreated controls
Outline: as §4

[15] = system: Triticum aestivum (TRZAS); settings: crop plant compatibility; for Pre-emergence action against TRZAS in %: in comparison to untreated controls
Outline: as §4

[16] = system: Alopecurus myosuroides (ALOMY); experiment: Post-emergence herbicidal action against ALOMY; settings: visual rating about 3 weeks after treatment vs untreated controls (100% = plants have died, 0% = like control plants)
Outline: as §2

[17] = system: Polygonum convolvulus (POLCO); experiment: Post-emergence herbicidal action against POLCO
Outline: as §2

[18] = system: Pharbitis purpurea (PHBPU); experiment: Post-emergence herbicidal action against PHBPU
Outline: as §2

[19] = system: Setaria viridis (SETVI); experiment: Post-emergence herbicidal action against SETVI
Outline: as §2

[20] = system: Avena fatua (AVEFA); experiment: Post-emergence herbicidal action against AVEFA; settings: visual rating about 3 weeks after treatment
Outline: as §2

[21] = system: Viola tricolor (VIOTR); experiment: Pre-emergence herbicidal action against VIOTR; settings: 320 g/ha, Viola tricolor
Outline: as §1

[22] = system: Viola tricolor (VIOTR); experiment: Post-emergence herbicidal action against VIOTR; settings: 320 g/ha
Outline: as §2

[23] = system: Lolium rigidum (LOLRI); experiment: Pre-emergence herbicidal action against LOLRI; settings: dosage 320 g/ha
Outline: as §1

[24] = system: Verconica persica (VERPE); experiment: Pre-emergence herbicidal action against VERPE; settings: dosage 320 g/ha
Outline: as §1

[25] = system: Polygonum convolvulus (POLCO); experiment: Pre-emergence herbicidal action against POLCO
Outline: as §1

[26] = system: Echinochloa crus-galli (ECHCG); experiment: Pre-emergence herbicidal action against ECHCG; settings: dosage 320 g/ha
Outline: as §1

[27] = system: Digitaria sanguinalis (DIGSA); experiment: Pre-emergence herbicidal action against DIGSA
Outline: as §1

[28] = system: Avena fatua (AVEFA); experiment: Pre-emergence herbicidal action against AVEFA; settings: 320 g/ha, visual scoring after about 3 weeks vs untreated controls
Outline: as §1

[29] = system: Alopecurus myosuroides (ALOMY); experiment: Pre-emergence herbicidal action against ALOMY; settings: scored visually after about 3 weeks, 100% = plants have died
Outline: as §1

[30] = system: Digitaria sanguinalis (DIGSA); experiment: Post-emergence herbicidal action against DIGSA; settings: visual rating about 3 weeks after treatment
Outline: as §2

[31] = system: Glycine max (GLXMA); experiment: Post-emergence crop plant compatibility, GLXMA; settings: post-emergence, 20 g/ha, effect in comparison to untreated controls
Procedure: Seeds of monocotyledonous and dicotyledonous weeds and crop plants are placed in sandy loam in plastic or organic planting pots, covered with soil and cultivated in a greenhouse under controlled growth conditions. 2 to 3 weeks after sowing, the test plants are treated at the one-leaf stage. The compounds of the invention, formulated in the form of wettable powders (WP) or as emulsion concentrates (EC), are then sprayed onto the green parts of the plants as aqueous suspension or emulsion with addition of 0.5% additive at a water application rate of 600 l/ha (converted). After the test plants have been kept in the greenhouse under optimum growth conditions for about 3 weeks, the activity of the preparations is rated visually in comparison to untreated controls. For example, 100% activity=the plants have died, 0% activity=like control plants.
The observed effects on selected crop plants are reported here in comparison to the untreated controls (values in %). The appendices “a”, “b” and “c” give differentiation by dosage used with otherwise the same crop plants tested.

[32] = 80 g/ha, effect in comparison to untreated controls
[33] = 20 g/ha, effect vs untreated controls

Post-emergence action against ZEAMX in % [3]: 10%
Post-emergence action against ORYSA in % [4, 32]: 10%
Post-emergence action against TRZAS in % ([5]; 80 g/ha): 20%
Pre-emergence action against GLXMA in % ([11]; pre-emergence, 80 g/ha, in comparison to untreated controls): 20%
Pre-emergence action against BRSNW in % ([12]; 80 g/ha): 20%
Pre-emergence action against ZEAMX in % [13]: 20%
Pre-emergence action against ORYSA in % [14]: 20%
Pre-emergence action against TRZAS in % ([15]; 80 g/ha): 10%
Pre-emergence action against TRZAS in % ([15]; 320 g/ha): 20%
SMILES: CCOC(=O)COc1nn(-c2cccc(C)n2)c(-c2ccc(F)nc2)c1Br [Example I-312]
Pre-emergence action against SETVI in % ([1]; dosage 320 g/ha): 90%
Post-emergence action against LOLRI in % [2]: 90%
Post-emergence action against VERPE in % [6]: 80%
Post-emergence action against ECHCG in % [7]: 90%
Pre-emergence action against MATIN in % [8]: 90%
Post-emergence action against ABUTH in % [9]: 80%
Pre-emergence action against AMARE in % [10]: 90%
Post-emergence action against ALOMY in % ([16]; 320 g/ha): 90%
Post-emergence action against POLCO in % ([17]; dosage 80 g/ha): 80%
Post-emergence action against POLCO in % ([17]; dosage 320 g/ha): 80%
Post-emergence action against PHBPU in % ([18]; dosage 80 g/ha): 80%
Post-emergence action against PHBPU in % ([18]; dosage 320 g/ha): 90%
Post-emergence action against SETVI in % ([19]; dosage 320 g/ha): 80%

Post-emergence action against ZEAMX in % (crop plant compatibility) [3]: 10%
Post-emergence action against ORYSA in % [4, 33]: 0%
Post-emergence action against ORYSA in % [4, 32]: 0%
Post-emergence action against ORYSA in % ([4]; 320 g/ha, effect in comparison to untreated controls): 10%
Pre-emergence action against GLXMA [11, 33]: 10%
Pre-emergence action against BRSNW in % ([12]; 20 g/ha): 10%
Pre-emergence action against BRSNW in % ([12]; 80 g/ha): 20%
Pre-emergence action against ZEAMX [13, 33]: 10%
Pre-emergence action against ZEAMX in % [13]: 10%
Pre-emergence action against ORYSA [14, 33]: 0%
Pre-emergence action against ORYSA in % [14]: 20%
Pre-emergence action against TRZAS [15, 33]: 0%
SMILES: COC(=O)[C@@H](C)Oc1nn(-c2ccc(F)cn2)c(-c2ccc(F)nc2)c1Br [Example I-11]
Pre-emergence action against SETVI in % ([1]; dosage 80 g/ha): 90%
Pre-emergence action against SETVI in % ([1]; dosage 320 g/ha): 100%
Post-emergence action against LOLRI in % [2]: 80%
Post-emergence action against AVEFA in % ([20]; 80 g/ha): 80%
Post-emergence action against AVEFA in % ([20]; 320 g/ha): 90%
Pre-emergence action against VIOTR in % [21]: 100%
Post-emergence action against VERPE in % [6]: 80%
Post-emergence action against ECHCG in % [7]: 80%
Pre-emergence action against MATIN in % [8]: 90%
Post-emergence action against VIOTR in % [22]: 80%
Pre-emergence action against AMARE in % [10]: 100%
Pre-emergence action against LOLRI in % [23]: 100%
Pre-emergence action against VERPE in % [24]: 90%
Pre-emergence action against POLCO in % ([25]; dosage 80 g/ha): 90%
Pre-emergence action against POLCO in % ([25]; dosage 320 g/ha): 90%
Post-emergence action against ALOMY in % ([16]; 80 g/ha): 90%
Post-emergence action against ALOMY in % ([16]; 320 g/ha): 90%
Pre-emergence action against ECHCG in % [26]: 80%
Pre-emergence action against DIGSA in % ([27]; 80 g/ha, visual scoring after about 3 weeks vs untreated controls): 100%
Pre-emergence action against DIGSA in % ([27]; dosage 320 g/ha): 100%
Pre-emergence action against AVEFA in % [28]: 90%
Post-emergence action against PHBPU in % ([18]; dosage 320 g/ha): 90%
Pre-emergence action against ALOMY ([29]; 80 g/ha): 90%
Pre-emergence action against ALOMY ([29]; 320 g/ha): 100%
Post-emergence action against DIGSA in % ([30]; 80 g/ha): 90%
Post-emergence action against DIGSA in % ([30]; 320 g/ha): 90%
Post-emergence action against SETVI in % ([19]; dosage 80 g/ha): 80%
Post-emergence action against SETVI in % ([19]; dosage 320 g/ha): 90%

Post-emergence action against ZEAMX in % (crop plant compatibility) [3]: 0%
Post-emergence action against ZEAMX in % [3]: 0%
Post-emergence action against TRZAS in % ([5]; 20 g/ha): 0%
Post-emergence action against TRZAS in % ([5]; 80 g/ha): 0%
Post-emergence action against GLXMA in % [31]: 0%
SMILES: COC(=O)CCOC(=O)COc1nn(-c2ccccn2)c(-c2ccc(F)nc2)c1C1CC1(F)F (stereo not drawn) [Example I-261]
Post-emergence action against VERPE in % [6]: 80%
Post-emergence action against VIOTR in % [22]: 80%
Post-emergence action against ABUTH in % [9]: 80%
Post-emergence action against POLCO in % ([17]; dosage 320 g/ha): 80%
Post-emergence action against PHBPU in % ([18]; dosage 320 g/ha): 80%
